Measurements reported in PubChem BioAssay AID330 (DTP/NCI, 2004).
“And” between values parts separate entries of the source, which are not always exact repeats. Equal entries are not always repeated. Toxic doses and inconclusive results are not listed.

System: P388 leukemia ip, CD2F1 mice, survival T/C
Assay: NCI In Vivo Anticancer Drug Screen. Data for tumor model P388 Leukemia (intraperitoneal) in CD2F1 (CDF1) mice
Conditions: endpoint: median survival time, higher = longer survival
In short: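 Mice carrying the transplanted tumor received test compound or vehicle. Survival was recorded in each group, and the value is the treated-group measurement divided by that of the vehicle-treated control group.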

[1] = dose: 50.0 mg/kg/injection, schedule: Q01DX005 (ip), vehicle: saline with Tween-80

For `CCN(CC)CCNC(=O)C(=O)NCCN(CC)CC`, the T/C (dose: 50.0 mg/kg/injection, schedule: Q01DX005 (ip), vehicle: saline) was 97 % of control and the T/C (dose: 100.0 mg/kg/injection, schedule: Q01DX005 (ip), vehicle: saline) was 99 % of control.

With `N#CCC[P+](CCC#N)(CCC#N)CCN1C(=O)c2ccccc2C1=O` the T/C (dose: 0.78 mg/kg/injection, schedule: Q01DX009 (ip), vehicle: water) was 96 % of control, the T/C (dose: 1.56 mg/kg/injection, schedule: Q01DX009 (ip), vehicle: water) was 89 % of control and the T/C (dose: 3.13 mg/kg/injection, schedule: Q01DX009 (ip), vehicle: water) was 100 % of control. The T/C (dose: 6.25 mg/kg/injection, schedule: Q01DX009 (ip), vehicle: water) was 115 % of control, the T/C (dose: 12.5 mg/kg/injection, schedule: Q01DX009 (ip), vehicle: water) was 108 % of control and the T/C (dose: 25.0 mg/kg/injection, schedule: Q01DX009 (ip), vehicle: water) was 102 % of control and 117 % of control. The T/C (dose: 50.0 mg/kg/injection, schedule: Q01DX009 (ip), vehicle: water) was 100 % of control, the T/C (dose: 100.0 mg/kg/injection, schedule: Q01DX009 (ip), vehicle: water) was 100 % of control and the T/C (dose: 200.0 mg/kg/injection, schedule: Q01DX009 (ip), vehicle: water) was 101 % of control.

`CCOC(=O)N1Cc2cc3cc(Cl)ccc3nc2C1` was tested, and the T/C (dose: 3.13 mg/kg/injection, schedule: Q01DX009 (ip), vehicle: saline with Tween-80) was 98 % of control, the T/C (dose: 6.25 mg/kg/injection, schedule: Q01DX009 (ip), vehicle: saline with Tween-80) was 105 % of control and the T/C (dose: 8.0 mg/kg/injection, schedule: Q01DX009 (ip), vehicle: saline with Tween-80) was 95 % of control. For the same compound, the T/C (dose: 12.5 mg/kg/injection, schedule: Q01DX009 (ip), vehicle: saline with Tween-80) was 105 % of control, the T/C (dose: 16.0 mg/kg/injection, schedule: Q01DX009 (ip), vehicle: saline with Tween-80) was 88 % of control and the T/C (dose: 25.0 mg/kg/injection, schedule: Q01DX009 (ip), vehicle: saline with Tween-80) was 116 % of control. The T/C (dose: 32.0 mg/kg/injection, schedule: Q01DX009 (ip), vehicle: saline with Tween-80) was 87 % of control, the T/C (dose: 64.0 mg/kg/injection, schedule: Q01DX009 (ip), vehicle: saline with Tween-80) was 95 % of control and the T/C (dose: 128.0 mg/kg/injection, schedule: Q01DX009 (ip), vehicle: saline with Tween-80) was 100 % of control.

With `Clc1ccccc1C=Nc1ccccc1` the T/C (dose: 50.0 mg/kg/injection, schedule: Q01DX009 (ip), vehicle: saline with Tween-80) was 121 % of control.

For `NC(=O)CCCSC1=CC(=O)c2ccccc2C1=O`, the T/C (dose: 3.12 mg/kg/injection, schedule: Q04DX002 (ip), vehicle: saline with Tween-80) was 104 % of control, the T/C (dose: 6.25 mg/kg/injection, schedule: Q04DX002 (ip), vehicle: saline with Tween-80) was 101 % of control and the T/C (dose: 12.5 mg/kg/injection, schedule: Q04DX002 (ip), vehicle: saline with Tween-80) was 111 % of control and 114 % of control.

For `O=C(O)C(Cc1ccc(O)cc1)c1ccc(C(Cc2ccc(O)cc2)C(=O)O)cc1` (centres undefined), the T/C [1] was 105 % of control, the T/C (dose: 100.0 mg/kg/injection, schedule: Q01DX005 (ip), vehicle: saline with Tween-80) was 102 % of control and the T/C (dose: 200.0 mg/kg/injection, schedule: Q01DX005 (ip), vehicle: saline with Tween-80) was 100 % of control.

In the case of `O=C1C=CC(=NS(=O)(=O)c2ccccc2)C=C1`, the T/C (dose: 12.5 mg/kg/injection, schedule: Q01DX001 (ip), vehicle: other) is reported as 100 % of control, the T/C (dose: 25.0 mg/kg/injection, schedule: Q01DX001 (ip), vehicle: other) is reported as 100 % of control and the T/C (dose: 50.0 mg/kg/injection, schedule: Q01DX001 (ip), vehicle: other) is reported as 100 % of control.

In the case of `[Cl][Pt+2][Cl].[NH-]C1CCCC1.[NH-]C1CCCC1`, the T/C (dose: 20.0 mg/kg/injection, schedule: Q01DX009 (ip), vehicle: Klucel (hydroxypropylcellulose) (HPC)) is reported as 156 % of control and 169 % of control, the T/C (dose: 40.0 mg/kg/injection, schedule: Q01DX009 (ip), vehicle: Klucel (hydroxypropylcellulose) (HPC)) is reported as 156 % of control and 168 % of control and 175 % of control and the T/C (dose: 80.0 mg/kg/injection, schedule: Q01DX009 (ip), vehicle: Klucel (hydroxypropylcellulose) (HPC)) is reported as 179 % of control and 193 % of control and 220 % of control. For the same compound, the T/C (dose: 160.0 mg/kg/injection, schedule: Q01DX009 (ip), vehicle: Klucel (hydroxypropylcellulose) (HPC)) was 182 % of control and 233 % of control and the T/C (dose: 320.0 mg/kg/injection, schedule: Q01DX009 (ip), vehicle: Klucel (hydroxypropylcellulose) (HPC)) was 110 % of control and 186 % of control and 229 % of control.

For `Nc1ncccc1O`, the T/C (dose: 2.5 mg/kg/injection, schedule: Q01DX009 (ip), vehicle: saline) was 104 % of control, the T/C (dose: 5.0 mg/kg/injection, schedule: Q01DX009 (ip), vehicle: saline) was 97 % of control and the T/C (dose: 10.0 mg/kg/injection, schedule: Q01DX009 (ip), vehicle: saline) was 96 % of control. The T/C (dose: 20.0 mg/kg/injection, schedule: Q01DX009 (ip), vehicle: saline) was 110 % of control and the T/C (dose: 40.0 mg/kg/injection, schedule: Q01DX009 (ip), vehicle: saline) was 107 % of control.

`O=C1C=Cc2ccccc2C1=C1SCCS1` was tested, and the T/C (dose: 50.0 mg/kg/injection, schedule: Q01DX009 (ip), vehicle: Klucel (hydroxypropylcellulose) (HPC)) was 103 % of control, the T/C (dose: 100.0 mg/kg/injection, schedule: Q01DX009 (ip), vehicle: Klucel (hydroxypropylcellulose) (HPC)) was 93 % of control and the T/C (dose: 200.0 mg/kg/injection, schedule: Q01DX009 (ip), vehicle: Klucel (hydroxypropylcellulose) (HPC)) was 90 % of control.

In the case of `COc1cc(N=Nc2ccccc2)cc(/C=N\NC(=S)Nc2cccc(C)c2)c1O`, the T/C [1] is reported as 87 % of control.
